Laboratory results: patent US9556113B2, “Combination uses of dichloroacetate and oxamate, and their prodrugs, for cancer treatment” (The South Dakota Board of Regents, priority 2014, dated 2017)

Assays:
[1] = test system: E6E7/Ras MTE cells; test: Clonogenic growth (colony formation); format: cell-based, mouse; details: 7 days; for number of colonies compared to DCA treated cultures (FIG. 4C): 5 mM prodrug vs 10 mM DCA; for colony size (FIG. 4B): 5 mM prodrugs, 10 mM DCA, vs DMSO
Procedure: (§1) FIG. 4 illustrates prodrugs AT-N4-001 and AT-N4-002 inhibiting cell proliferation and colony growth of E6E7/Ras MTE cells. (A) E6E7/Ras MTE cultures were treated with DMSO (Con), AT-N4-001, or AT-N4-[…] 002 at the indicated concentration for one day. Live cell number was then determined using a trypan blue exclusion assay. (B) E6E7/Ras MTE cells were seeded on 100-mm plate at 500 cells per plate (in triplicate). After one day, cells were treated as indicated and allowed to grow until colonies of untreated controls reached 50 or more cells (7 days). Plates were stained with Coomassie blue to visualize the colonies. (C) Quantification of colonies described in B. Colonies with more than 15 cells were counted.
(§2) E6E7/Ras MTE cells are mouse tonsilar epithelial cells that have been transformed by HPV oncogenes E6 and E7 together with activated ras. They form tumors in mice and are a model of human HPV+HNSCC. These cells were treated in culture with either vehicle control (DMSO), AT-N4-001, or AT-N4-002 at concentrations of 1 mM, 2.5 mM and 5 mM for one day. Live cells were counted using a hemocytometer (FIG. 4A). […] The effects of the compounds on clonogenic growth of the cells were also tested. E6/E7/Ras MTE cells were seeded in 100 mm plates in triplicate, and the next day cells were treated with either vehicle control DMSO, 5 mM AT-N4-001, 5 mM AT-N4-002, or 10 mM DCA. DCA was used at a twice the concentration because the prodrugs each carry two molecules of DCA.

[2] = test system: E6E7/Ras MTE cells; test: Live cell number, trypan blue exclusion assay; format: cell-based, mouse; details: 1 mM, 2.5 mM and 5 mM, one day, vs DMSO
Procedure: as §1
as §2, with “DCA was used at a twice the concentration because the prodrugs each carry two molecules of DCA.” left out

[3] = In vivo release of DCA and oxamate from prodrugs, blood LC/MS/MS; parameters: species or system female C57BL/6 mice; details: i.p., 7.6 mg/mouse
Procedure: FIG. 16 provides LC/MS chromatograms derived from blood samples of mice dosed with prodrug 1 (AT-N4-001) (A). Mice were dosed with prodrug 1 (7.6 mg/mouse) by i.p. Blood samples were collected at 5 min and 25 min for mice dosed with prodrug 1 through retro-orbital bleeding with mice under general anesthesia. After protein precipitation by acetonitrile, samples were analyzed by LC/MS/MS. For samples derived from mice dosed with prodrug 1, the electrospray ion source was operated in the negative ionization mode for four minutes to detect DCA and oxamate before switched to the positive ionization mode to detect prodrug 1. Selected reaction monitoring (SRM) was performed to monitor the mass transition of 386→297 (1), 127→83 (DCA) and selected ion monitoring (SIM) was performed to monitor oxamate at the m/z of 88.0.
FIG. 17 provides LC/MS chromatograms derived from blood samples of mice dosed with prodrug 2 (AT-N4-002) (B). Mice were dosed with prodrug 2 (7.6 mg/mouse) by i.p. Blood samples were collected at 5 min and 30 min for a mouse dosed with prodrug 2 through retro-orbital bleeding with mice under general anesthesia. After protein precipitation by acetonitrile, samples were analyzed by LC/MS/MS. For samples derived from mice dosed with prodrug 2, all the parameters were the same as set for prodrug 1 except the electrospray ion source was operated in the negative ionization mode for all the analytes. Prodrug 2 was detected by monitoring the mass transition of 384→126.
In vivo release of the prodrugs was investigated with female C57BL/6 mice. Mice were housed four in a cage and received food and water ad libitum. All mice were used at approximately 7-10 weeks of age and given at least one week break after arrival. All experimental protocols were approved by the Institutional Animal Care and Use Committee at South Dakota State University. A prodrug (1 or 2), suspended in 3% (v/v) Tween 80 in saline (30.4 mg/ml), was administered (7.6 mg/mouse) to mice by i.p. Blood samples were obtained through retro-orbital bleeding with mice under general anesthesia through the use of isoflurane. The blood samples were immediately frozen in liquid nitrogen and stored at −80° C. freezer before LC/MS/MS analysis.
The blood sample was quickly thawed at 37° C. The sample (200 μl) was first mixed with acetonitrile ([…]) and centrifuged at 14000 rpm for 2 min at 4° C. The precipitates were washed with additional acetonitrile (2×200 μl) and centrifuged. […]
LC/MS/MS analysis was completed on a ThermoFinnigan TSQ Quantum Ultra triple quadrupole mass spectrometer coupled with an Agilent Eclipse XDB-C18 column ([…], 5 μm) equipped with an Agilent XDB-C8 guard column. […] Prodrug 2 was detected by monitoring the mass transition of 384→126.

[4] = test system: HPV+ HNSCC tumor; test: Intratumoral pH and tumor lactate; format: in vivo, wild-type mice
Procedure: FIG. 11 illustrates the effect of prodrug on tumor pH and tumor lactate. (A) Intratumoral pH in living animals was determined by inserting a needle pH electrode directly into the tumor. The pH was read at 3 different depths in each tumor. Each marker on the graph represents a separate pH measurement. The bar represents the mean and the error bars the standard deviation. (B) Frozen sections of excised tumors were used to estimate lactate levels in the tumor microenvironment. This was performed using the In Vivo Xtreme imager to visualize lactate-dependent luciferase activity as described by Broggini-Tenzer et al. [Metabolism of tumors under treatment: mapping of metabolites with quantitative bioluminescence. Radiother Oncol 99, 398-403 (2011)]. (C) Plot of lactate measurements in B. Each marker represents one tumor. The bar represents the mean and the error bars the standard deviation.
The ability of DCA and oxamate to enhance survival in wild-type mice following chemoradiation correlates closely with their ability to reduce tumor lactate. We therefore examined the ability of the prodrug AT-N4-002 to reduce tumor lactate. Wild-type tumor bearing mice were treated with either CRT or CRT followed by one week of daily ip injection of AT-N4-002. Lactate is exported from cells together with a proton and therefore promotes acidification of the tumor microenvironment. Intratumoral pH was measured with a needle pH electrode. […] (FIG. 11B,C).

[5] = CRT followed by one week of daily ip injection

| SMILES | number of colonies compared to DCA treated cultures (FIG. 4C) [1] | colony size (FIG. 4B) [1] | live cell number (FIG. 4A) [2] | release of DCA and oxamate in vivo [3] | prodrug in blood samples ([3]; after 25 min) | intratumoral pH compared to CRT group (FIG. 11A) [4, 5] | tumor lactate (FIG. 11B,C) [4, 5] | lactate production and acidity in tumor tissues versus DCA plus oxamate ([4]; separate in vivo experiment, data not shown) | prodrug in blood samples ([3]; after 30 min) |
| --- | --- | --- | --- | --- | --- | --- | --- | --- | --- |
| NC(=O)C(=O)OC(COC(=O)C(Cl)Cl)COC(=O)C(Cl)Cl [AT-N4-001, 2-(2-Amino-2-oxoacetoxy)propane-1,3-diyl bis(2,2-dichloroacetate)] | significantly lower | approximately equal reductions in colony size | significant reductions in live cell number | quickly released DCA and oxamate | No prodrug was detected | – | – | – | – |
| NC(=O)C(=O)OCC(COC(=O)C(Cl)Cl)OC(=O)C(Cl)Cl (stereo not shown) [AT-N4-002, 3-(2-amino-2-oxoacetoxy)propane-1,2-diyl bis(2,2-dichloroacetate)] | significantly lower | approximately equal reductions in colony size | significant reductions in live cell number | quickly released DCA and oxamate | – | significantly higher | decreased tumor lactate | more effective in reducing lactate production and acidity in tumor tissues than DCA plus oxamate | No prodrug was detected |
